Laboratory results: paper PMC12424289, “Programmable Nanostructure Assembly of a Paclitaxel Derivative Enables Tunable Anticancer Therapy via Hydrogen Bond Engineering” (ACS Nano, 2025)

What was measured:
[1] = tested on: human ovarian SKOV3 cells; test: CCK8 antiproliferation assay, SKOV3; format: cell-based; details: SK-OV-3, SKOV3, 48 h treatment
Description: The mouse breast cancer cell line 4T1 and the human ovarian cancer cell line SKOV3 were cultured in RPMI 1640 medium supplemented with 10% fetal bovine serum, 100 units·mL^–1 penicillin, and 100 μg·mL^–1 streptomycin. The human lung cancer cell line A549 and the luciferase-expressing human colorectal carcinoma cell line HCT116-Luc were cultured in high-glucose DMEM medium supplemented with 10% fetal bovine serum, 100 units·mL^–1 penicillin, and 100 μg·mL^–1 streptomycin. All cell lines were maintained at 37 °C in a Steri-Cycle 371 incubator (Thermo Scientific, USA) with a humidified atmosphere of 5% CO2. Only cells between passages 5 and 15 were used for cell-based experiments.
The antiproliferative activity of PTP was evaluated using the Cell Counting Kit-8 (CCK8) assay. PTX solution served as a positive control. Cell suspensions were prepared at a density of 3 × 10^4 cells·mL^–1 and seeded in 96-well plates at a volume of 100 μL per well. The plates were incubated for 24 h to allow cell attachment and growth. Subsequently, the culture media were replaced with fresh media containing varying concentrations of PTX or PTP solutions (100 μL per well), and the cells were incubated for an additional 48 h (n = 3). Control wells received fresh culture media alone (n = 3). […] Finally, the absorbance was measured at 450 nm using a microplate reader (Synergy H1, BioTek, USA). […]

[2] = Appearance on dissolving/dispersing in water or excipient solution; format: physicochemical; details: 5.0 mg·mL^–1 drug; with 260.0 mg·mL^–1 PEG400 or 20.0 mg·mL^–1 HA where named
Description: PTP self-assemblies were prepared by adding 5.0 mg of PTP to 1.0 mL of a water, followed by vortexing for 1 min. For PTP@PEG coassemblies, 260.0 mg of PEG400 was mixed with 1.0 mL of the chosen water-based solution. This PEG400 solution was then added to 5.0 mg of PTP powder, and the resulting mixture was vortexed for 1 min. PTP@HA coassemblies were prepared by first dispersing 20.0 mg of HA in 1.0 mL of the selected water-based solution. Following this step, the resulting HA solution was added to 5.0 mg of PTP powder. The final mixture was vortexed for 1 min. To prepare the PTX@PEG control system, 1.3 g of PEG400 was mixed with 5.0 mL of water. Then, 25.0 mg of PTX was added to the solution, and the mixture was vortexed for 1 min. Similarly, the PTX@HA control system was prepared by dispersing 100.0 mg of HA in 5.0 mL of water. Subsequently, 25.0 mg of PTX was added, and the mixture was vortexed for 1 min.

In the case of `CC(=O)O[C@H]1C(=O)[C@@]2(C)[C@H]([C@H](OC(=O)c3ccccc3)[C@]3(O)C[C@H](OC(=O)[C@H](OC(=O)CCP(=O)(O)O)[C@@H](NC(=O)c4ccccc4)c4ccccc4)C(C)=C1C3(C)C)[C@]1(OC(C)=O)CO[C@@H]1C[C@@H]2O` [PTP, PTX-2’–OOC-P], the IC50 [1] is reported as 31.2 nM and the “appearance of the system” value [2] is reported as “transparent solution”.
